Data set [1] can be described thus: xn = mol fraction of the nth substance listed. To be noted: 101.3 kPa, Liquid.
Data set [2] is described as follows: excess molar enthalpy (molar enthalpy of mixing); xn = mol fraction of the nth substance listed. To be noted: 318.15 K, 101.3 kPa, Liquid.
For data set [3] the following is noted: Liquid; for mass density: 101.3 kPa; for Normal boiling temperature: Closed cell (Static) method.

Values joined by “and” are separate entries in the source; they are usually repeats but may differ in a detail not shown here. Identical values can stand only once. ± gives the expanded uncertainty stated by the source.

Mass density, excess molar enthalpy and Normal boiling temperature data for eleven compounds are collected here from the NIST ThermoML archive (doi:10.1021/je0301794).

As usually defined, the mass density is mass per unit of volume. For `COC(=O)OC` [dimethyl carbonate] + CCCCCCCCC, the mass density is on record as 1070 ± 0.6 kg/m3 in data set [1] (293.15 K, x1 = 1); 1063.5 ± 0.6 kg/m3 in data set [1] (298.15 K, x1 = 1); 1056.6 ± 0.6 kg/m3 in data set [1] (303.15 K, x1 = 1); 1043.4 ± 0.5 kg/m3 in data set [1] (313.15 K, x1 = 1); 1036.9 ± 0.5 kg/m3 in data set [1] (318.15 K, x1 = 1). In addition, the excess molar enthalpy in data set [2] (x1 = 1) was 0 ± 0.000478 kcal/mol.

For the compound `CCCCCCCC` [octane], the mass density in data set [3] (293.15 K) was determined as 702.5 ± 0.5 kg/m3; in data set [3] (298.15 K), 698.5 ± 0.5 kg/m3; in data set [3] (303.15 K) it was 694.5 ± 0.5 kg/m3; in data set [3] (313.15 K), 686.3 ± 0.5 kg/m3; in data set [3] (318.15 K), 682.1 ± 0.5 kg/m3. Besides, in data set [3], the Normal boiling temperature came out at 125.50 ± 0.2 °C.

For `COC(=O)OC` [dimethyl carbonate], the mass density was 1070 ± 0.6 kg/m3 in data set [3] (293.15 K); 1063.5 ± 0.6 kg/m3 in data set [3] (298.15 K); 1056.5 ± 0.6 kg/m3 and 1056.6 ± 0.6 kg/m3 in data set [3] (303.15 K); 1043.4 ± 0.5 kg/m3 in data set [3] (313.15 K); 1036.9 ± 0.5 kg/m3 in data set [3] (318.15 K). Moreover, the Normal boiling temperature in data set [3] was 90.31 ± 0.2 °C.

With `CCCCCCC` [heptane] + COC(=O)OC, the mass density in data set [1] (293.15 K, x2 = 0) was determined as 683.6 ± 0.5 kg/m3; in data set [1] (298.15 K, x2 = 0), 679.4 ± 0.5 kg/m3; in data set [1] (303.15 K, x2 = 0), 675.3 ± 0.5 kg/m3; in data set [1] (313.15 K, x2 = 0), 666.6 ± 0.5 kg/m3; in data set [1] (318.15 K, x2 = 0) it was 661.5 ± 0.5 kg/m3. Besides, the excess molar enthalpy in data set [2] (x2 = 0) was 0 ± 0.000478 kcal/mol.

Consider `CCCCCCCC` [octane] + COC(=O)OC, for which the mass density is reported as 702.5 ± 0.5 kg/m3 in data set [1] (293.15 K, x2 = 0); 698.5 ± 0.5 kg/m3 in data set [1] (298.15 K, x2 = 0); 694.5 ± 0.5 kg/m3 in data set [1] (303.15 K, x2 = 0); 686.3 ± 0.5 kg/m3 in data set [1] (313.15 K, x2 = 0); 682.1 ± 0.5 kg/m3 in data set [1] (318.15 K, x2 = 0). Besides, the excess molar enthalpy in data set [2] (x2 = 0) came out at 0 ± 0.000478 kcal/mol.

For the compound `CCCCCCCCC` [nonane], the mass density in data set [3] (293.15 K) was found to be 717.7 ± 0.5 kg/m3; in data set [3] (298.15 K) it was 713.9 ± 0.5 kg/m3; in data set [3] (303.15 K), 710.1 ± 0.5 kg/m3; in data set [3] (313.15 K), 702.2 ± 0.5 kg/m3; in data set [3] (318.15 K) it was 698.1 ± 0.5 kg/m3. Also, the Normal boiling temperature in data set [3] worked out at 150.51 ± 0.2 °C.

Consider `COC(=O)OC` [dimethyl carbonate] + CCCCCCCCCC, for which the mass density in data set [1] (298.15 K, x1 = 1) amounted to 1063.5 ± 0.6 kg/m3; in data set [1] (303.15 K, x1 = 1) it was 1056.6 ± 0.6 kg/m3; in data set [1] (313.15 K, x1 = 1), 1043.4 ± 0.5 kg/m3; in data set [1] (318.15 K, x1 = 1), 1036.9 ± 0.5 kg/m3. In data set [2] (x1 = 1), the excess molar enthalpy worked out at 0 ± 0.000478 kcal/mol.

In the case of `CCCCCCC` [heptane], the mass density turned out to be 683.6 ± 0.5 kg/m3 in data set [3] (293.15 K); 679.4 ± 0.5 kg/m3 in data set [3] (298.15 K); 675.3 ± 0.5 kg/m3 in data set [3] (303.15 K); 666.6 ± 0.5 kg/m3 in data set [3] (313.15 K); 661.5 ± 0.5 kg/m3 in data set [3] (318.15 K). In addition, the Normal boiling temperature in data set [3] amounted to 98.03 ± 0.2 °C.

Consider `CCCCCC` [hexane], for which the mass density is recorded as 659.3 ± 0.5 kg/m3 in data set [3] (293.15 K); 654.8 ± 0.5 kg/m3 in data set [3] (298.15 K); 650.4 ± 0.5 kg/m3 in data set [3] (303.15 K); 641.1 ± 0.6 kg/m3 in data set [3] (313.15 K); 636.4 ± 0.6 kg/m3 in data set [3] (318.15 K). Moreover, in data set [3], the Normal boiling temperature was found to be 68.78 ± 0.2 °C.

As to `CCCCCC` [hexane] + COC(=O)OC, the mass density in data set [1] (293.15 K, x2 = 0) was found to be 659.3 ± 0.5 kg/m3; in data set [1] (298.15 K, x2 = 0) it was 654.8 ± 0.5 kg/m3; in data set [1] (303.15 K, x2 = 0), 650.4 ± 0.5 kg/m3; in data set [1] (313.15 K, x2 = 0), 641.1 ± 0.6 kg/m3; in data set [1] (318.15 K, x2 = 0), 636.4 ± 0.6 kg/m3. The excess molar enthalpy in data set [2] (x2 = 0) stood at 0 ± 0.000478 kcal/mol.

As for `CCCCCCCCCC` [decane], the mass density in data set [3] (298.15 K) was found to be 726.2 ± 0.5 kg/m3; in data set [3] (303.15 K), 722.3 ± 0.5 kg/m3; in data set [3] (313.15 K) it was 714.7 ± 0.5 kg/m3; in data set [3] (318.15 K), 710.9 ± 0.5 kg/m3. In data set [3], the Normal boiling temperature worked out at 173.8 ± 0.2 °C.
